For two compounds, IC50 and EC50 results are on record in PMC5080355, “Interaction of the Nitrogen Regulatory Protein GlnB (PII) with Biotin Carboxyl Carrier Protein (BCCP) Controls Acetyl-CoA Levels in the Cyanobacterium Synechocystis sp. PCC 6803” (Frontiers in Microbiology, 2016).

Assay [1] has as its target T1, SyGlnB (PII) in complex with SyBCCP (Synechocystis sp. PCC 6803, UniProt Q55247). Description: pull-down of GlnB with His-BCCP on Ni-NTA magnetic beads, SDS-PAGE densitometry, 2-OG titration. It counts as binding. Set-up: gene glnB; GlnB C-terminally Strep-tagged (pASK-IBA3glnBSc); bait His-tagged BCCP (pET15accB), biotinylated with E. coli BirA; both expressed in E. coli and purified; GlnB homotrimer; with Biotin carboxyl carrier protein of acetyl-CoA carboxylase. The following applies: read-out: apparent IC50.

The target of assay [2] is T2, SyGlnB (PII) in complex with SyBCCP (Synechocystis sp. PCC 6803, UniProt Q55247, S49D).
T2 construct: gene glnB
T2 sequence (Q55247 whole entry S49D): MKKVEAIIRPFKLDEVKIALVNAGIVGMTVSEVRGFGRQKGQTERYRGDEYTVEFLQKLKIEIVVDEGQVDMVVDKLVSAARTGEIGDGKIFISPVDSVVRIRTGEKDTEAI
T2 sequence (Q55120 entry or part of it, stated change not applied, further chain): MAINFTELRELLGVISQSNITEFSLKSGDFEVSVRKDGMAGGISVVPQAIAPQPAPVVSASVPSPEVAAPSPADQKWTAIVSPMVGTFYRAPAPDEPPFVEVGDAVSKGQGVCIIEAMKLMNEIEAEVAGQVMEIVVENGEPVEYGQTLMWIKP
As to the kind of experiment: biochemical.

The target in assay [3] is T3, SyGlnB (PII) in complex with SyBCCP (Synechocystis sp. PCC 6803, UniProt Q55247, S49C).
T3 construct: gene glnB
T3 sequence (Q55120 entry or part of it, stated change not applied): as the sequence (Q55120 entry or part of it, stated change not applied, further chain) above
T3 sequence (Q55247 whole entry S49C): as the sequence (Q55247 whole entry S49D) above, with D49C counted along it
Description: biochemical.

Assay [4] has as its target T1, SyGlnB (PII) in complex with SyBCCP. As to the kind of experiment: biochemical. The arrangement: gene glnB.

Usually IC50 stands for the concentration needed to halve the response being measured. In general, EC50 refers to the concentration that produces a half-maximal response.

T1 sequence (Q55247 whole entry): as the sequence (Q55247 whole entry S49D) above, with D49S counted along it
T1 sequence (Q55120 1-154 partner): as the sequence (Q55120 entry or part of it, stated change not applied, further chain) above

On to `O=C(O)CCC(=O)C(=O)O` [2-OG], for which, in assay [1], the IC50 came out at 41.3 µM.

For the compound `Nc1ncnc2c1ncn2[C@@H]1O[C@H](COP(=O)(O)OP(=O)(O)OP(=O)(O)O)[C@@H](O)[C@H]1O` [ATP], the 50% effective concentration (EC50) in assay [2] was 231 µM; in assay [3], 143 µM; in assay [4], 68 µM.
